Laboratory results reported in patent US8372967B2, “Compounds and methods for modulating expression of GCCR” (Isis Pharmaceuticals, Inc., priority 2006, dated 2013).
Strand notation (5' to 3'): a small letter for the sugar, then the base; units joined by * are phosphorothioate-linked, units joined directly phosphodiester-linked; [ ] holds rarer units or linkages, { } end groups; capitals alone tell only the bases. e = 2'-O-(2-methoxyethyl) (MOE); [5mC] = 5-methylcytosine; d = 2'-deoxy (DNA)

Experiments:
[1] = test system: DGAT2 mRNA; test: Antisense inhibition of DGAT2 in A10 cells, 75 nM (Table 81); type: cell-based, rat; conditions: approximately 24 hours
Protocol: Short antisense compounds targeted to a DGAT2 nucleic acid were tested for their effects on DGAT2 mRNA in vitro. Cultured A10 cells in a 96-well plate were treated with 75 nM of short antisense compound. After a treatment period of approximately 24 hours, RNA was isolated from the cells and DGAT2 mRNA levels were measured by quantitative real-time PCR, as described herein. DGAT2 mRNA levels were adjusted according to total RNA content as measured by RIBOGREEN®. Results are presented as percent inhibition of DGAT2, relative to untreated control cells in Table 81.

[2] = test system: rat DGAT2 mRNA; test: Dose-dependent inhibition of DGAT2 in A10 cells (Tables 82, 83); type: cell-based
Protocol: Additional short antisense compounds targeted to DGAT2 mRNA were tested in vitro in a dose-response experiment. A10 cells were prepared as described above and treated with 6.25, 12.5, 25.0, 50.0, 100.0, and 200.0 nM short antisense compounds to determine if DGAT2 inhibition occurs in a dose-dependent manner. […] Results are presented as percent inhibition, relative to untreated control cells.
Additional short antisense compounds targeted to DGAT2 mRNA were tested in vitro. A10 cells were prepared as described above and treated with 0.62, 1.85, 5.56, 16.67, 50.0, and 150.0 nM short antisense compounds to determine if DGAT2 inhibition occurs in a dose-dependent manner. DGAT2 mRNA was measured using quantitative real-time PCR, as described herein. […] Results are presented as percent inhibition of rat DGAT2, relative to untreated control cells.

Substance | % Control [1] [% Control] | percent inhibition of rat DGAT2 ([2]; 0.62 nM (Table 83)) [%] | percent inhibition of rat DGAT2 ([2]; 1.85 nM (Table 83)) [%] | percent inhibition of rat DGAT2 ([2]; 5.56 nM (Table 83)) [%] | percent inhibition of rat DGAT2 ([2]; 16.67 nM (Table 83)) [%] | percent inhibition of rat DGAT2 ([2]; 50 nM (Table 83)) [%] | percent inhibition of rat DGAT2 ([2]; 150 nM (Table 83)) [%] | percent inhibition of DGAT2 ([2]; 6.25 nM (Table 82)) [%] | percent inhibition of DGAT2 ([2]; 12.5 nM (Table 82)) [%] | percent inhibition of DGAT2 ([2]; 50.0 nM (Table 82)) [%] | percent inhibition of DGAT2 ([2]; 100.0 nM (Table 82)) [%] | percent inhibition of DGAT2 ([2]; 200.0 nM (Table 82)) [%]
372624 (antisense eT*eG*dG*dT*d[5mC]*dT*dT*dG*dT*dG*dA*dT*eT*eG) [compound 372624] | 56 | 0 | 0 | 0 | 1 | 16 | 38 |  |  |  |  | 
372508 (antisense eA*eG*eT*dT*d[5mC]*d[5mC]*dT*dG*dG*dT*dG*dG*dT*e[5mC]*eA*eG) [compound 372508] | 35 | 0 | 0 | 6 | 14 | 39 | 71 |  |  |  |  | 
372569 (antisense e[5mC]*eA*dT*dG*dA*dG*dG*dA*dT*dG*dA*d[5mC]*eA*e[5mC]) [compound 372569] | 104 |  |  |  |  |  |  |  |  |  |  | 
372578 (antisense eT*eG*dT*dG*dT*d[5mC]*dT*dT*d[5mC]*dA*d[5mC]*d[5mC]*eA*eG) [compound 372578] | 59 | 0 | 0 | 0 | 2 | 7 | 42 |  |  |  |  | 
372516 (antisense eT*eA*e[5mC]*dA*dG*dA*dA*dG*dG*d[5mC]*dA*d[5mC]*d[5mC]*e[5mC]*eA*eG) [compound 372516] | 27 | 1 | 10 | 0 | 4 | 35 | 81 |  |  |  |  | 
372500 (antisense eG*eT*eG*dT*dG*dT*d[5mC]*dT*dT*d[5mC]*dA*d[5mC]*d[5mC]*eA*eG*e[5mC]) [compound 372500] | 16 | 0 | 0 | 0 | 18 | 64 | 88 |  |  |  |  | 
372602 (antisense e[5mC]*e[5mC]*dA*dG*dG*d[5mC]*dA*dT*dG*dG*dA*dG*e[5mC]*eT) [compound 372602] | 39 | 0 | 0 | 10 | 0 | 19 | 51 | 0 | 0 | 18 | 47 | 76
372594 (antisense eA*e[5mC]*dA*dG*dA*dA*dG*dG*d[5mC]*dA*d[5mC]*d[5mC]*e[5mC]*eA) [compound 372594] | 77 | 0 | 0 | 0 | 0 | 2 | 15 |  |  |  |  | 
372546 (antisense eT*eT*eG*dG*dT*d[5mC]*dT*dT*dG*dT*dG*dA*dT*eT*eG*eT) [compound 372546] | 34 | 0 | 2 | 11 | 4 | 48 | 78 |  |  |  |  | 
